In US20260325605A1, “INHIBITORS” (Zealand Pharma A/S, priority 2022, published 2026):

Experiments:
Kv1.3 = molecular target: T1, Kv1.3 (Homo sapiens, UniProt P22001); test: Patch clamp assay (QPatch), Kv1.3; format: cell-based; conditions: CHO cells stably expressing human Kv1.3, read-out: Potency IC50, Kv1.3
T1 construct: expressed in transfected cells

[1] = tested on: T-cell activation in rat whole blood; test: Example 4: IL-17A release in thapsigargin stimulated rat whole blood; format: cell-based, rat (Lewis or Sprague-Dawley); conditions: 24 Hr, at least 2 replicates, unit inferred, read-out: IC50 (inhibition of IL-17A release)
From the text: Rat whole blood was used to assess the potency of Kv1.3 inhibitor peptides on T-cell activation as determined by IL-17A release after stimulation with thapsigargin. Addition of thapsigargin results in activation of a signalling cascade ending up in activation of T cell proliferation and cytokine production where the Kv1.3 ion channel plays a key role, so activity of Kv1.3 inhibitors in primary cells can be measured in this experimental system.
Rat whole blood was obtained from healthy, naïve Lewis or Sprague-Dawley rats that were terminally bleed from the heart using Sodium Heparin blood sampling tubes for collection. Peptides were diluted to 4× final testing concentrations in assay buffer (DMEM+GlutaMAX), GlutaMAX is a medium comprising 3.97 mM L-alanine-L-glutamine (Gibco Cat #61965026) supplemented with 25 mM HEPES buffer, 1 mM Sodium Pyruvate, 100 units/ml Penicillin, 100 μg/ml Streptomycin and 0.05% Casein from bovine milk (Sigma-Aldrich)) and 25 μl was added to wells of a 96 well plate. Then 50 μl whole rat blood was added and incubated for minimum 5 minutes at room temperature to allow compound binding. Then 25 μl 40 μM thapsigargin diluted in assay buffer was added to all wells of the assay plates to activate the cells, followed by incubation for 24 Hr at 37° C./5% CO2 in a humidified box. The assay plates were centrifuged for 10 min at 300 g at 4° C. and the supernatants were transferred to new plates. The concentrations of IL-17A released to the supernatants were measured using a Rat IL-17A ELISA Kit (Abcam Cat #ab214028) as recommended by the manufacturer. Samples were diluted 2.5-fold by transferring 20 μl of the supernatants to wells on ELISA plates containing 30 μl buffer 75BS from the detection kit.
Data from peptides eliciting an inhibition of IL-17A were normalised relative to full thapsigargin activation (no inhibitor added) and no activation controls (addition of assay buffer instead of thapsigargin) to calculate the IC50 from the concentration response curve.
Results are shown in Table 5, expressed as IC50, with standard deviation (IC50_SD). All values are derived from at least 2 replicates. The biological effects ex vivo show a correlation with the potency of the peptides.

Kv1.1 = molecular target: T2, Kv1.1 (Homo sapiens, UniProt Q09470); test: Patch clamp assay (QPatch), Kv1.1; format: cell-based; conditions: for IC50: QPatch, CHO cells stably expressing human Kv1.1, read-out: Potency IC50, Kv1.1; for Selectivity Kv1.1/Kv1.3: ratio of IC50 Kv1.1/Kv1.3
T2 construct: expressed in transfected cells
T2 sequence (Q09470 whole entry): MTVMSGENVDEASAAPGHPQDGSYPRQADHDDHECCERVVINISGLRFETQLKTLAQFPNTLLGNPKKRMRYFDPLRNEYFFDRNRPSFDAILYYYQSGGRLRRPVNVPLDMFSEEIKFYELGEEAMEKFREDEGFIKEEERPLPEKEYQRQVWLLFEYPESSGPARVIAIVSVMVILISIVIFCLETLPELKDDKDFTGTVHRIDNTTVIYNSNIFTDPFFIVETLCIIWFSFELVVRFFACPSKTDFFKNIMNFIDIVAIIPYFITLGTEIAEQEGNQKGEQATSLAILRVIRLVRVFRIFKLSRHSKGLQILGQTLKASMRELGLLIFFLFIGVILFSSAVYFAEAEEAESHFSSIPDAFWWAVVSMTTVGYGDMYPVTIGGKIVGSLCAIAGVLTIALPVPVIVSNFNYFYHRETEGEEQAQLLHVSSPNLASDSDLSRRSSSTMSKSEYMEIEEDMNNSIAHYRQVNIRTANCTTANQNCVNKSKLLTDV
Experimental: (§1) Selectivity of Kv1.3 inhibitor peptides for Kv1.3 over other potassium ion channels (Kv1.1, Kv1.2 and Kv1.6) was determined using patch clamp assay.
(§2) Chinese Hamster Ovary (CHO) cell lines stably expressing exogenous human α-subunits of each potassium ion channel were grown and passaged under standard culture conditions.
(§3) The automated, chip-based planar patch clamp device QPatch® was used to quantitate the ionic currents. All recordings were made in the conventional whole-cell configuration after establishment of gigaohm seals. […] During experiments 0.1% (v/v) BSA was included as a vehicle in all external recording solutions. Currents were elicited from a holding potential of −80 mV using a voltage protocol, which shifted the voltage to 30 mV for 500 ms every 15 s.
(§4) Concentration-response relationships were established by cumulatively applying seven escalating concentrations of test sample to an individual cell with a recording period of 2 min per compound application.
(§5) The efficacy was determined as the mean charge for the last three sweeps at the end of each concentration application period from the cursor positions. The percent inhibition for each test dose application period was calculated as the reduction in mean cursor value (charge) relative to the cursor value measured at the end of the vehicle period and used to calculate the IC50 from the concentration response curve.

Kv1.2 = molecular target: T3, Kv1.2 (Homo sapiens, UniProt P16389); test: Patch clamp assay (QPatch), Kv1.2; format: cell-based; conditions: for IC50: QPatch, CHO cells stably expressing human Kv1.2, read-out: Potency IC50, Kv1.2; for Selectivity Kv1.2/Kv1.3: ratio of IC50 Kv1.2/Kv1.3
T3 construct: expressed in transfected cells
T3 sequence (P16389 whole entry): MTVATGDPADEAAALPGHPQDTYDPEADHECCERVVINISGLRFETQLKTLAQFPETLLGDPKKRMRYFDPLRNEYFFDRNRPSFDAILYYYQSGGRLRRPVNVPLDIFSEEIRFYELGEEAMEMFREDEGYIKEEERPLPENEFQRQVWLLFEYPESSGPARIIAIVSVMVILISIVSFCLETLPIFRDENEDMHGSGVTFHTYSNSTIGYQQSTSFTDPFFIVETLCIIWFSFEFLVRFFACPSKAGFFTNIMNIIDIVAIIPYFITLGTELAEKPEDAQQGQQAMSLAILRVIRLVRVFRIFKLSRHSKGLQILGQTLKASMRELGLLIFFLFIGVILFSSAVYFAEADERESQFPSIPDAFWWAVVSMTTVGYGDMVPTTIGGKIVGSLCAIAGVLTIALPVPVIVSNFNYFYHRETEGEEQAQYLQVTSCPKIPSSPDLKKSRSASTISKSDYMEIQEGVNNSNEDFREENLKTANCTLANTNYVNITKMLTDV
Experimental: as §1, §2, §3, §4, §5

Kv1.6 = molecular target: T4, Kv1.6 (Homo sapiens, UniProt P17658); test: Patch clamp assay (QPatch), Kv1.6; format: cell-based; conditions: for IC50: QPatch, CHO cells stably expressing human Kv1.6, read-out: Potency IC50, Kv1.6; for Selectivity Kv1.6/Kv1.3: ratio of IC50 Kv1.6/Kv1.3
T4 construct: expressed in transfected cells
T4 sequence (P17658 whole entry): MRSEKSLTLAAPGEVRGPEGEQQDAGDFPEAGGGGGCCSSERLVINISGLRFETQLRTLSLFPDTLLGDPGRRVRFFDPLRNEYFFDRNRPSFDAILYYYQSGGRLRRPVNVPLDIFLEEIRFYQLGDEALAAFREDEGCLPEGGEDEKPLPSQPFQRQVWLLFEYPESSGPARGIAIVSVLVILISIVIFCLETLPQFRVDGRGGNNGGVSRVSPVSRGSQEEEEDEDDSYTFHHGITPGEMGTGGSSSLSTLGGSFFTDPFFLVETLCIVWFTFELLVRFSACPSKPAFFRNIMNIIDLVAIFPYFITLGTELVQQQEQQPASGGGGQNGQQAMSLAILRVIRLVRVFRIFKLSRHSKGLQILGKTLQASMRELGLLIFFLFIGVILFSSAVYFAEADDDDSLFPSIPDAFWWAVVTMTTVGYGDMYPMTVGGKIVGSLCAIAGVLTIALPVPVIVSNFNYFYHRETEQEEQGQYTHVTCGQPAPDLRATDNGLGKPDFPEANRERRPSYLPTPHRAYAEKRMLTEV

T1 sequence (P22001 whole entry): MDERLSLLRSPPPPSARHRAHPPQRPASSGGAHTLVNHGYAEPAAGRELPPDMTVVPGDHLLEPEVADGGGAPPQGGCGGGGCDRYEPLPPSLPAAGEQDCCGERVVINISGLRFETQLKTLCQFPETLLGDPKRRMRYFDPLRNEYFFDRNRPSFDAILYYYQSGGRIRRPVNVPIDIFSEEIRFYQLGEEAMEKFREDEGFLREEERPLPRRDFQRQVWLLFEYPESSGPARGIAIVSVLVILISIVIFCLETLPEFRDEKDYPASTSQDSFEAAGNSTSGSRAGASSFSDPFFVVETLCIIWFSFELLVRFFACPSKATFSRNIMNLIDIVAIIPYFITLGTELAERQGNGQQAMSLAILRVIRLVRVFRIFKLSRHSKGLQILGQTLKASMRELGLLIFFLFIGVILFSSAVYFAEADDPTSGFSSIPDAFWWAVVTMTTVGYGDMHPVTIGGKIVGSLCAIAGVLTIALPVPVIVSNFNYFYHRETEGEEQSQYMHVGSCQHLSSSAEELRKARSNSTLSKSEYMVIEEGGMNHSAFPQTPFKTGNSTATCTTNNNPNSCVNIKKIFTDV

| Substance | IC50 (Kv1.3) | IC50 [1] | IC50 (Kv1.1) | Selectivity Kv1.1/Kv1.3 (Kv1.1) | IC50 (Kv1.2) | Selectivity Kv1.2/Kv1.3 (Kv1.2) | IC50 (Kv1.6) | Selectivity Kv1.6/Kv1.3 (Kv1.6) |
| --- | --- | --- | --- | --- | --- | --- | --- | --- |
| H-S[Nle]D[Nle]RC(1)SASVEC(2)KQKC(3)LKAIGSIFGKC(1)MNKKC(2)RC(3)YPR-NH2 [Peptide 77] | 0.13 nM | 0.86 nM | – | – | – | – | – | – |
| H-C(1)SASVEC(2)KQKC(3)LKAIGSIFGKC(1)MNKKC(2)KC(3)YPR-OH [Peptide 124] | 2.09 nM | 1.9 nM | > 3000 nM | >1400 | 1830 nM | 878 | > 3000 nM | >1400 |
| H-RC(1)SASVEC(2)KQKC(3)LKAIGSIFGKC(1)[Nle]NKKC(2)KC(3)YPR-NH2 [Peptide 111] | 0.4 nM | 0.52 nM | > 3000 nM | >7600 | 280 nM | 708 | 1300 nM | 3290 |
| H-NMDMRC(1)SASVEC(2)KQKC(3)LKAIGSKFGKC(1)MNKKC(2)KC(3)YPR-NH2 [Peptide 35] | 0.42 nM | 2.1 nM | > 3000 nM | >7100 | 100 nM | 237 | 207 nM | 490 |
| H-N[Nle]D[Nle]RC(1)SASKEC(2)KQKC(3)LKAIGSIFGKC(1)[Nle]NKKC(2)KC(3)YPR-NH2 [Peptide 64] | 0.31 nM | 0.68 nM | > 3000 nM | >9600 | 184 nM | 587 | 1230 nM | 3929 |
| H-NMDMRC(1)SASVEC(2)KQKC(3)LKAIRSIFGKC(1)MNKKC(2)KC(3)YPR-NH2 [Peptide 22] | 0.22 nM | 0.82 nM | > 3000 nM | >13700 | 57 nM | 259 | 626 nM | 2851 |
| Ac-SKC(1)SASVEC(2)KQKC(3)LKAIGSIFGKC(1)[Nle]NKKC(2)KC(3)YPR-NH2 [Peptide 113] | 1 nM | 0.36 nM | > 3000 nM | >3000 | 196 nM | 196 | 1450 nM | 1451 |
| H-N[Nle]D[Nle]RC(1)SASVEC(2)KKKC(3)LKAIGSIFGKC(1)[Nle]NKKC(2)KC(3)YPR-NH2 [Peptide 46] | 0.75 nM | 1.4 nM | > 3000 nM | >4000 | 257 nM | 343 | > 3000 nM | >4000 |
| H-Y[Nle]D[Nle]RC(1)SASVEC(2)KQKC(3)LKAIGSIFGKC(1)[Nle]NKKC(2)KC(3)YPR-NH2 [Peptide 66] | 0.14 nM | 1.1 nM | – | – | – | – | – | – |
| H-NMDMRC(1)SASVEC(2)KQKC(3)LKAIGSIFGKC(1)MNKKC(2)HC(3)YPR-NH2 [Peptide 38] | 0.19 nM | 0.77 nM | > 3000 nM | >16100 | 338 nM | 1816 | > 3000 nM | >16100 |
| H-P[Nle]D[Nle]RC(1)SASVEC(2)KQKC(3)LKAIGC(4)IFGKC(1)[Nle]NKKC(2)KC(3)YPC(4)-NH2 [Peptide 85] | 0.63 nM | 0.81 nM | > 3000 nM | >4800 | 624 nM | 995 | 1220 nM | 1949 |
| H-N[Nle]D[Nle]RC(1)SASVEC(2)KQKC(3)KAIGSIFGKC(1)[Nle]NKKC(2)KC(3)YPR-NH2 [Peptide 50] | 1.34 nM | 1 nM | > 3000 nM | >2200 | 164 nM | 123 | 946 nM | 707 |
| H-N[Nle]D[Nle]RC(1)SASVEC(2)KQKC(3)LKAIGSPFGKC(1)[Nle]NKKC(2)KC(3)YPR-NH2 [Peptide 63] | 0.26 nM | 0.44 nM | > 3000 nM | >11600 | 449 nM | 1740 | 2350 nM | 9102 |
| H-S[Nle]DERC(1)SASVEC(2)KQKC(3)LKAIGSIFGKC(1)MNKKC(2)KC(3)YPR-NH2 [Peptide 78] | 0.28 nM | 0.55 nM | > 3000 nM | >10600 | 122 nM | 430 | > 3000 nM | >10600 |
| H-NMDMRC(1)SASVEC(2)KQKC(3)LKAIGSIFGKC(1)MNGKC(2)KC(3)YPR-NH2 [Peptide 37] | 0.31 nM | 1.2 nM | > 3000 nM | >9700 | 439 nM | 1422 | > 3000 nM | >9700 |
| H-NMDMRC(1)SASVQC(2)KQKC(3)LKAIGSIFGKC(1)MNKKC(2)KC(3)YPR-NH2 [Peptide 29] | 0.2 nM | 0.53 nM | > 3000 nM | >15200 | 16 nM | 83 | 252 nM | 1272 |
| H-N[Nle]S[Nle]RC(1)SASVEC(2)KQKC(3)LKAIGSIFGKC(1)[Nle]NKKC(2)KC(3)YPR-NH2 [Peptide 47] | 0.32 nM | 0.79 nM | > 3000 nM | >9400 | 302 nM | 943 | 1400 nM | 4359 |
| H-P[Nle]E[Nle]RC(1)SASVEC(2)KQKC(3)LAAIGSIFGKC(1)[Nle]NKKC(2)KC(3)YPR-NH2 [Peptide 101] | 0.18 nM | 0.34 nM | > 3000 nM | >16200 | 311 nM | 1689 | > 3000 nM | >16200 |
| H-PIE[Nle]RC(1)SASVEC(2)KQKC(3)LKAIGSIFGKC(1)[Nle]NKKC(2)KC(3)YPR-OH [Peptide 99] | 0.39 nM | 1.8 nM | > 3000 nM | >7800 | 1760 nM | 4561 | > 3000 nM | >7800 |
| H-H[Nle]D[Nle]RC(1)SASVEC(2)KQKC(3)LKAIGSIFGKC(1)[Nle]NKKC(2)KC(3)YPR-NH2 [Peptide 65] | 0.25 nM | 1.2 nM | – | – | – | – | – | – |
| H-V[Nle]D[Nle]RC(1)SASVEC(2)KQKC(3)LKAIGSIFGKC(1)[Nle]NKKC(2)KC(3)YPR-NH2 [Peptide 69] | 0.32 nM | 0.98 nM | – | – | – | – | – | – |
| H-S[Nle]D[Nle]RC(1)SASVEC(2)KQKC(3)LKAIGSIFGKC(1)[Nle]NKKC(2)KC(3)YPR-NH2 [Peptide 67] | 0.18 nM | 0.47 nM | – | – | – | – | – | – |
| H-NMDMRC(1)SASVEC(2)KLKC(3)LKAIGSIFGKC(1)MNKKC(2)KC(3)YPR-NH2 [Peptide 33] | 0.38 nM | 0.75 nM | – | – | – | – | – | – |
| H-AAAISCVGSPECPPKCRAQGCKNGKCMNRKCKCYYC-NH2 [Vm24, reference compound] | 0.15 nM | – | 0.097 nM | 0.65 | 4.7 nM | 31 | 21 nM | 139 |
